US9632075B2, “Prevention or attenuation of neuropathic pain by bile acids” (Metselex, Inc., priority 2011, dated 2017)

What was measured:
Type in all cases: in vivo, rat
RVM neurons = assay: number of RVM neurons after spinal nerve ligation (SNL), stereological cell counting
Source text: (§1) Rats were divided into two experimental groups: a group in which the L5 spinal nerve was ligated and cut, and a sham-operated control group. The left L5 spinal nerve was isolated, tightly ligated and cut distal to the ligation under isoflurane anesthesia (1.5%). The surgical procedure for the sham-operated group was identical to that of the SNL group, except that the L5 spinal nerve was not ligated or cut. General behavior of the rats was monitored before and after the surgery. Any rats showing difficulty elevating a hindpaw were discarded from the study.
(§2) Rats were treated with 5,7-dihydroxytryptamine (5,7-DHT: 100 μg/10 μl, intracisternal injection) to induce loss of RVM serotonergic neurons. Rats were randomly assigned to one of four groups for these experiments: (1) L5 SNL with 5,7-DHT; (2) L5 SNL with vehicle injection; (3) sham with 5,7-DHT; and (4) sham with vehicle. Injections were given ten days after surgery; animals receiving vehicle injections received sterile saline (10 μl, intracisternal injection). To prevent damage to noradrenergic (NE) neurons, the inventors pre-treated animals 30 minutes before 5,7-DHT and saline administration with desipramine (20 mg/kg i.p.), an inhibitor of neuronal NE reuptake. To test the effects of inhibiting apoptosis on SNL, the inventors administered a systemically active inhibitor of apoptosis, tauroursodeoxycholic acid (TUDCA) (300 mg/kg i.p. or saline prior to and after surgery. For each group, injections were given every-other day, starting 3 days prior to surgery and continuing until sacrifice. To confirm the efficacy of TUDCA, the inventors tested its effects on dexamethasone-induced apoptosis in thymus. Two TUDCA injections (300 mg/kg i.p.) were given: one to two days prior to dexamethasone (1 mg/kg i.p.) administration and one the day of dexamethasone administration. Control animals were given saline injections instead of TUDCA solution. Rats were killed one day after dexamethasone administration.
(§3) The RVM and spinal cord were sectioned using a freezing microtome (Leica, SM2400) at a nominal thickness of 50 μm. […]

RVM 5-HT neurons = assay: number of RVM 5-HT (TPH-ir) neurons after SNL, stereological cell counting
Source text: as §1, §2, §3

paw withdrawal threshold = assay: von Frey testing for tactile hypersensitivity after SNL; settings: for withdrawal threshold of the ipsilateral hindpaw: TUDCA 300 mg/kg i.p.
Source text: as §1, §2
Mechanical sensitivity was determined by measuring the paw withdrawal threshold in response to the application of von Frey filaments, using the up-down method of Chaplan. In brief, rats were placed on a wire mesh surface, covered by an inverted plastic cage and allowed to habituate for 15 min. Filaments were then applied to the plantar surface of the hindpaw. If application of the filament evoked no response, the next-larger filament was applied; if application elicited withdrawal, the next-smaller filament was applied. This sequence was repeated until the largest filament was used or until four filaments were applied after the first withdrawal was noted. Withdrawal thresholds were measured prior to surgery and at 2-3 day intervals after surgery. In all cases, thresholds were measured bilaterally.

thymus = assay: dexamethasone-induced apoptosis in thymus (caspase-3 labeling); settings: TUDCA 300 mg/kg i.p., two injections; dexamethasone 1 mg/kg i.p.
Protocol: as §2, with “Rats were killed one day after dexamethasone administration.” left out

RVM glia = assay: number of RVM glia after SNL (Nissl-stained tissue); settings: SNL rats
Source text: as §1, §2
Conventional microscopy was used to collect images of the RVM for cell counting. An Olympus BX50 fluorescence microscope (Tokyo, Japan) equipped with filter sets designed to allow selective visualization of Cy2 and Cy3 was used. Microscopic images were collected with a Scion 1346 digital camera. Confocal images were collected using an Olympus FluoView FV1000 microscope (Tokyo, Japan). ImageJ 1.29 (developed at NIH and available at http://rsb.info.nih.gov/ij/) or Photoshop were used to adjust contrast and brightness in images. […]
stereological methods were used for quantification as described previously. […] The sampling interval thereafter was determined based on the number of sections within the RVM and was usually every sixth section. […]

C[C@H](CCC(=O)NCCS(=O)(=O)O)[C@H]1CC[C@H]2[C@@H]3[C@@H](O)C[C@@H]4C[C@H](O)CC[C@]4(C)[C@H]3CC[C@]12C [TUDCA, tauroursodeoxycholic acid]
number of RVM neurons ipsilateral to the lesion (RVM neurons; SNL rats, TUDCA 300 mg/kg i.p. every-other day, ipsilateral, vehicle 12,540±930): 17,976±1,202 | number of RVM neurons contralateral to SNL (RVM neurons; SNL rats, TUDCA 300 mg/kg i.p., contralateral, saline 16,949±1,074): 16,675±828 | number of RVM neurons ipsilateral, higher than in vehicle-treated SNL rats (RVM neurons; ipsilateral, p<0.05, n=8): 43% | number of RVM 5-HT neurons contralateral to SNL (RVM 5-HT neurons; SNL rats, TUDCA 300 mg/kg i.p., contralateral): 1,251±99 | number of RVM 5-HT neurons ipsilateral to SNL (RVM 5-HT neurons; SNL rats, TUDCA 300 mg/kg i.p., ipsilateral, vehicle 1,043±118): 1,353±96 | number of RVM 5-HT neurons ipsilateral, higher than in vehicle-treated rats (RVM 5-HT neurons; ipsilateral, p<0.05, n=8): 30% | withdrawal threshold of the ipsilateral hindpaw (paw withdrawal threshold; Day 4 post-SNL, vehicle 1.1±0.3 g): 3.5 ± 0.5 g | withdrawal threshold of the ipsilateral hindpaw (paw withdrawal threshold; Day 6 post-SNL, vehicle 1.3±0.2 g): 4.0 ± 0.5 g | withdrawal threshold of the ipsilateral hindpaw (paw withdrawal threshold; Day 8 post-SNL, vehicle 1.2±0.3 g): 4.6 ± 1.1 g | withdrawal threshold of the ipsilateral hindpaw (paw withdrawal threshold; Day 10 post-SNL, vehicle 1.2±0.2 g): 5.2 ± 1.3 g | SNL-induced mechanical hypersensitivity (paw withdrawal threshold; TUDCA 300 mg/kg i.p. every-other day): partially reversed | tactile hypersensitivity one-to-three days after SNL (paw withdrawal threshold; one-to-three days after SNL, TUDCA): does not reduce hypersensitivity | caspase-3 labeling in thymus compared to dexamethasone alone (thymus): marked decrease | number of RVM glia contralateral after SNL (RVM glia; TUDCA, contralateral, vehicle 80,086±2,899): 60,437±4,315 | number of RVM glia ipsilateral after SNL (RVM glia; TUDCA, ipsilateral, vehicle 85,541±2,972): 62,306±3,736 | RVM glia contralateral, fewer than vehicle (RVM glia; contralateral, p<0.05): 25% | RVM glia ipsilateral, fewer than vehicle (RVM glia; ipsilateral, p<0.05, n=7 TUDCA, n=6 vehicle): 27%

NCCc1c[nH]c2c(O)cc(O)cc12 [5,7-DHT, 5,7-dihydroxytryptamine]
mechanical hypersensitivity after SNL (paw withdrawal threshold; 5,7-DHT 100 μg/10 μl intracisternal injection ten days after surgery): partially reversed
